In one series the test system is SW1088. Description: MTT test, cytotoxic activity on non-clonogenic cell lines. The note with it: Homo sapiens, 10^−5 M, 72 hours of incubation, control condition = 100%, mean value, read-out: mean optical density as percentage of control, SW1088. In kind it is cell-based. The method, then: (§1) The principle of the MTT test is based on the mitochondrial reduction, by the metabolically active live cells, of the yellow-colored product MTT (3-(4,5-dimethylthiazol-2-yl)-2,5-diphenyltetrazolium bromide) to a blue-colored product, formazan. The amount of formazan thus obtained is directly proportional to the amount of live cells present in the culture well(s). This amount of formazan is measured by spectrophotometry.
(§2) The cell lines are maintained as a monolayer culture at 37° C. in stoppered culture dishes containing MEM 25 MM HEPES (Minimum Essential Medium) base medium. This medium is suited to the growth of a range of various mammalian diploid or primary cells. This medium is then supplemented with:
(§3) The 12 human cancer cell lines which were used were obtained from the American Type Culture Collection (ATCC, Rockville, Md., USA). These 12 cell lines are:
SW1088 (code ATCC: HTB-12) which is an astro-cytoma,
(§4) Experimentally, 100 μl of a cell suspension containing 20 000 to 50 000 (depending on the cell type used) cells/ml of culture medium are inoculated -in 96-well flat-bottomed multi-well plates and are left to stand in an incubator at 37° C., 5% CO2 and 70% humidity. After an incubation time of 24 hours, the culture medium is replaced with 100 μl of fresh medium containing either the various test compounds—at concentrations varying from 10^−5 to 10^−10 M—or the solvent having served for dissolving the products to be tested (control condition). […] The microplates are thus incubated for 3 hours at 37° C., then centrifuged for 10 minutes at 400 g. The yellowish solution of MTT is removed and the blue formazan crystals formed in the cell region are dissolved in 100 μl or DMSO. The microplates are then shaken for 5 minutes. […] Software incorporated in the spectrophotometer calculates the average optical density values and the standard deviation (SD) and standard error of mean (SEM) values.

Series [1] can be described thus: Determination of the maximum tolerated dose (MTD). The note with it: B6D2F1/Jico, mouse, in vivo, ip; single intraperitoneal administration, doses 2.5 to 160 mg/kg, survival over 14 days. As for the experimental part: The evaluation of the maximum tolerated dose was performed on 4- to 6-week-old B6D2F1/Jico mice. The compounds were administered intraperitoneally at increasing doses ranging from 2.5 to 160 mg/kg. The value of the MTD (expressed in mg/kg) is determined from the observation of the survival rate of the animals over a 14-day period after a single administration of the product under consideration. The change in weight of the animals is also monitored during this period. When the MTD value is greater than 160 mg/kg, the MTD value is considered as being 160 mg/kg by default.

The test system of the next series is T24. Description: MTT test, cytotoxic activity on non-clonogenic cell lines. In kind it is cell-based. The settings on record: Homo sapiens, T-24; 10^−5 M, 72 hours of incubation, control condition = 100%, mean value; read-out: mean optical density as percentage of control, T24. As for the experimental part: as §1, §2, §3
(§5) J82 (code ATCC: HTB-1) and T24 (code ATCC: HTB-4) which are two bladder cancers,
as §4

The test system of another series is J82. The series is described as above. In kind it is cell-based. The settings on record: Homo sapiens, 10^−5 M, 72 hours of incubation, control condition = 100%, mean value, read-out: mean optical density as percentage of control, J82. As for the experimental part: as §1, §2, §3, §5, §4
The subject of another series is MCF7. Described as above. It counts as cell-based. The settings on record: Homo sapiens, 10^−5 M, 72 hours of incubation, control condition = 100%, mean value, read-out: mean optical density as percentage of control, MCF7. As for the experimental part: as §1, §2, §3, §4
The next series has as its system HCT-15. The description is as above. In kind it is cell-based. The settings on record: Homo sapiens, 10^−5 M, 72 hours of incubation, control condition = 100%, mean value, read-out: mean optical density as percentage of control, HCT-16. The method, then: as §1, §2, §3, §4
The subject of another series is A-427. Described as above. It counts as cell-based. The settings on record: Homo sapiens, 10^−5 M, 72 hours of incubation, control condition = 100%, mean value, read-out: mean optical density as percentage of control, A-427. As for the experimental part:
as §1, §2, §3, §4

For another series, the system named is LoVo. The series is described as above. It counts as cell-based. The settings on record: Homo sapiens, 10^−5 M, 72 hours of incubation, control condition = 100%, mean value, read-out: mean optical density as percentage of control, LoVo. The method, then: as §1, §2, §3, §4
Another series concerns A549. Described as above. In kind it is cell-based. The note with it: Homo sapiens, 10^−5 M, 72 hours of incubation, control condition = 100%, mean value, read-out: mean optical density as percentage of control, A549. The method, then: as §1, §2, §3, §4
The test system of a further series is U-87MG. Described as above. It counts as cell-based. The note with it: Homo sapiens, U-87 MG; 10^−5 M, 72 hours of incubation, control condition = 100%, mean value; read-out: mean optical density as percentage of control, U-87MG. The method, then: as §1, §2, §3, §4
In the next series the test system is T-47D. The series is described as above. In kind it is cell-based. The settings on record: Homo sapiens, T47D; 10^−5 M, 72 hours of incubation, control condition = 100%, mean value; read-out: mean optical density as percentage of control, T-47D. The method, then: as §1, §2, §3, §4
The next series has as its system PC-3. The series is described as above. In kind it is cell-based. The settings on record: Homo sapiens, 10^−5 M, 72 hours of incubation, control condition = 100%, mean value, read-out: mean optical density as percentage of control, PC-3. As for the experimental part: as §1, §2, §3, §4
The subject of a further series is U-373MG. The series is described as above. The settings on record: Homo sapiens, U373 MG; 10^−5 M, 72 hours of incubation, control condition = 100%, mean value; read-out: mean optical density as percentage of control, U-373MG. In kind it is cell-based. As for the experimental part: as §1, §2, §3, §4

Consider `COc1ccc(-c2c[nH]c3c(OC)ccc(OC)c3c2=O)cc1` [CRL8351, 5,8-Dimethoxy-3-(4-methoxyphenyl)-1,4-dihydro-4-quinolinone], for which the viability at 10 µM in the series with SW1088 amounted to 82.3%; with T24, 38.4%; in the series with J82, 39.2%; in the series on MCF7 it was 49%; in the series with HCT-15, 39.1%; with A-427 it was 33.7%. For the same compound, the viability at 10 µM in the series on LoVo came to 67%; in the series with A549 it was 34.6%; in the series with U-87MG it was 116%; with T-47D, 55%; in the series on PC-3 it was 83.2%; in the series on U-373MG it was 52.8%. In addition, the MTD (in general, the highest dose tested that stayed within the study's limit of toxicity) at 14 day in series [1] worked out at 40 mg/kg.

Consider `COc1cc(OC)c2c(=O)c(-c3ccccc3)c[nH]c2c1` [CRL8352, 5,7-Dimethoxy-3-phenyl-1,4-dihydro-4-quinolinone], for which the viability at 10 µM was found to be 96.8% in the series with SW1088; 83.7% in the series on T24; 93% in the series with J82; 85.6% with MCF7; 106% in the series with HCT-15; 103% with A-427. The viability at 10 µM in the series on LoVo came out at 103%; in the series on A549 it was 94.2%; with U-87MG, 158%; in the series with T-47D it was 105%; in the series on PC-3 it was 97.3%; in the series with U-373MG, 104%. In addition, the MTD at 14 day in [1] was over 160 mg/kg.

For the compound `COc1ccc(OC)c2c(=O)c(-c3ccccc3)c[nH]c12` [CRL8353, 5,8-Dimethoxy-3-phenyl-1,4-dihydro-4-quinolinone], the viability at 10 µM with SW1088 amounted to 74%; with T24, 68.6%; in the series on J82 it was 79.1%; with MCF7, 49.6%; with HCT-15 it was 55.7%; with A-427, 52.5%. The viability at 10 µM in the series on LoVo worked out at 85.5%; with A549 it was 42.3%; in the series on U-87MG it was 107%; with T-47D it was 87.2%; in the series on PC-3, 81%; in the series with U-373MG it was 54.5%. The same compound registered an MTD at 14 day in series [1] of over 160 mg/kg.

`COc1ccc(-c2c[nH]c3cc(OC)c(OC)cc3c2=O)cc1` [CRL8354, 6,7-Dimethoxy-3-(4-methoxyphenyl)-1,4-dihydro-4-quinolinone]: the viability at 10 µM in the series with SW1088 is 93.2%; in the series on T24, 91.4%; in the series with J82 it was 98.2%; in the series on MCF7 it was 102%; in the series on HCT-15, 95.9%; with A-427 it was 97.2%. The viability at 10 µM with LoVo came out at 98.4%; with A549, 98.5%; in the series with U-87MG, 102%; in the series with T-47D, 104%; in the series with PC-3, 93.7%; with U-373MG it was 97.7%. Besides, the MTD at 14 day in series [1] is over 160 mg/kg.

For the compound `COc1cc2[nH]cc(-c3ccccc3)c(=O)c2cc1OC` [CRL8355, 6,7-Dimethoxy-3-phenyl-1,4-dihydro-4-quinolinone], the viability at 10 µM with SW1088 is 97.5%; with T24 it was 89.4%; in the series on J82, 94.9%; with MCF7, 94.8%; in the series on HCT-15 it was 99.5%; in the series on A-427, 103%. Also, the viability at 10 µM was found to be 98.7% in the series with LoVo; 98.6% with A549; 94.4% with U-87MG; 98.5% in the series on T-47D; 100% in the series on PC-3; 97.7% in the series with U-373MG. Besides, the MTD at 14 day in series [1] was over 160 mg/kg.

In the case of `COc1ccc(-c2cn(CCCN(C)C)c3cc(OC)cc(OC)c3c2=O)cc1` [CRL8357, N-[3-(Dimethylamino)propyl]-5,7-dimethoxy-3-(4-methoxyphenyl)-1,4-dihydro-4-quinolinone], the viability at 10 µM with SW1088 turned out to be 69.6%; with T24, 99%; with J82, 84.7%; with MCF7, 95.8%; in the series with HCT-15 it was 79.5%; in the series on A-427 it was 59.5%. Moreover, the viability at 10 µM turned out to be 97.9% in the series with LoVo; 73.3% in the series on A549; 84.4% in the series with U-87MG; 94.1% with T-47D; 85.6% with PC-3; 96% with U-373MG. The same compound had an MTD at 14 day in series [1] of 80 mg/kg.

Consider `COc1ccc(-c2c[nH]c3cc(OC)ccc3c2=O)cc1` [CRL8358, 7-Methoxy-3-(4-methoxyphenyl)-1,4-dihydro-4-quinolinone], for which the viability at 10 µM in the series on SW1088 came to 98.3%; with T24, 90.7%; with J82, 92.7%; in the series with MCF7 it was 84.1%; in the series with HCT-15, 89.1%; in the series on A-427 it was 34.5%. For the same compound, the viability at 10 µM in the series with LoVo came to 38%; in the series on A549, 55%; in the series with U-87MG it was 80.1%; in the series on T-47D, 92.1%; with PC-3 it was 89.1%; in the series on U-373MG, 41%. The MTD at 14 day in [1] was over 160 mg/kg.

Turning to `COc1ccc2c(=O)c(-c3ccccc3)c[nH]c2c1` [CRL8359, 7-Methoxy-3-phenyl-1,4-dihydro-4-quinolinone], the viability at 10 µM with SW1088 turned out to be 140%; in the series with T24, 34.7%; in the series with J82 it was 52.2%; in the series with MCF7, 65.8%; in the series on HCT-15 it was 59.9%; in the series with A-427 it was 25.8%. Moreover, the viability at 10 µM stood at 30.9% in the series on LoVo; 73.9% in the series on A549; 114% in the series with U-87MG; 41.2% with T-47D; 123% in the series on PC-3; 41.2% in the series with U-373MG. Moreover, the MTD at 14 day in [1] is over 160 mg/kg.
